Source: ChEMBL document CHEMBL1201862, “PubChem BioAssay data set” (2004)
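Dose response: 5 concentrations. Exposure: 48 h. Format: 96-well plates. Endpoint: linear interpolation; highest concentration if not reached. The concentration for 50% growth inhibition is given as GI50.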 Calls of active or inactive are those of the source. Cut-off read from the data, not from the text of the source: active = GI50 up to about 1.1 µM and inactive = higher.

How the values were obtained:
Assay in all cases: NCI anticancer screen, dose series, 48 h
Malme-3M = tested on: Malme-3M
OVCAR-3 = tested on: OVCAR-3
LOX IMVI = tested on: LOX IMVI
UACC-62 = tested on: UACC-62
HCT-116 = tested on: HCT-116
SK-MEL-2 = tested on: SK-MEL-2
KM12 = tested on: KM12
U-251 = tested on: U-251
NCI-H522 = tested on: NCI-H522
SN12C = tested on: SN12C
NCI-H226 = tested on: NCI-H226
TK-10 = tested on: TK-10
SK-MEL-5 = tested on: SK-MEL-5
A549 = tested on: A549
SF-539 = tested on: SF-539
OVCAR-8 = tested on: OVCAR-8
UO-31 = tested on: UO-31
MOLT-4 = tested on: MOLT-4
SW-620 = tested on: SW-620
COLO 205 = tested on: COLO 205

Measured: GI50

CC1(C)OP23(NC(=O)OC2(C(F)(F)F)c2ccccc2O3)OC1(C)C (stereo unspecified)
inactive: Malme-3M > 100 µM | OVCAR-3 > 100 µM | LOX IMVI > 100 µM | UACC-62 > 100 µM | HCT-116 > 100 µM | SK-MEL-2 > 100 µM | KM12 > 100 µM | U-251 > 100 µM | NCI-H522 > 100 µM | SN12C > 100 µM | NCI-H226 > 100 µM | TK-10 > 100 µM | SK-MEL-5 > 100 µM | A549 > 100 µM | SF-539 > 100 µM | OVCAR-8 > 100 µM | UO-31 > 100 µM | MOLT-4 > 100 µM

CN(/N=C1\C(=O)Nc2ccccc21)c1ccccc1
inactive: Malme-3M 31.9 µM | OVCAR-3 33.7 µM | LOX IMVI > 100 µM | UACC-62 > 100 µM | SW-620 > 100 µM | HCT-116 57.8 µM | SK-MEL-2 > 100 µM | KM12 29.6 µM | U-251 74.8 µM | NCI-H522 87.3 µM | COLO 205 > 10 µM | NCI-H226 > 100 µM | TK-10 69.2 µM | SK-MEL-5 32.6 µM | A549 72.9 µM | SF-539 41.2 µM | OVCAR-8 26.4 µM | UO-31 11.8 µM | MOLT-4 45.2 µM

COc1c(Br)cc(CC(N)=O)c(O)c1Br
inactive: Malme-3M > 100 µM | OVCAR-3 > 100 µM | LOX IMVI > 100 µM | UACC-62 > 100 µM | SW-620 > 100 µM | HCT-116 > 100 µM | SK-MEL-2 > 100 µM | KM12 > 100 µM | U-251 > 100 µM | NCI-H522 > 100 µM | SN12C > 100 µM | COLO 205 > 100 µM | NCI-H226 > 100 µM | TK-10 > 100 µM | SK-MEL-5 > 100 µM | A549 > 100 µM | SF-539 > 100 µM | OVCAR-8 > 100 µM | UO-31 > 100 µM | MOLT-4 > 100 µM

COc1nc(SC)nc2c1cnn2C1OC(C(O)CO)C(OC)C1O (stereo unspecified)
inactive: Malme-3M > 100 µM | OVCAR-3 99.3 µM | LOX IMVI > 100 µM | UACC-62 > 65.6 µM | SW-620 > 100 µM | HCT-116 78.2 µM | SK-MEL-2 > 100 µM | KM12 > 78.9 µM | U-251 > 100 µM | NCI-H522 > 100 µM | SN12C > 100 µM | COLO 205 > 74.5 µM | NCI-H226 > 100 µM | SK-MEL-5 > 100 µM | A549 52.1 µM | SF-539 > 100 µM | OVCAR-8 > 100 µM | UO-31 34.9 µM | MOLT-4 14 µM

Cc1cc(C)n(C(=C(C(Cl)=C(Cl)Cl)[N+](=O)[O-])n2nc(C)cc2C)n1
inactive: Malme-3M 2.98 µM | OVCAR-3 3.08 µM | LOX IMVI 2.1 µM | UACC-62 4.06 µM | SW-620 3.7 µM | HCT-116 3.65 µM | SK-MEL-2 1.37 µM | KM12 3.48 µM | U-251 3.44 µM | NCI-H522 2.73 µM | SN12C 3.98 µM | COLO 205 2.08 µM | NCI-H226 5.66 µM | TK-10 3.39 µM | SK-MEL-5 2.13 µM | A549 3.5 µM | SF-539 4.59 µM | OVCAR-8 3.06 µM | UO-31 3.18 µM | MOLT-4 2.37 µM
